Source: US4348393A, “N-Aryl oxazolidinones, oxazolidinethiones, pyrrolidinones, pyrrolidines and thiazolidinones” (Delalande S.A., priority 1978, dated 1982)

Experiments:
[1] = system: generalized trembling caused by dl-5-hydroxytryptophane; assay: Test A: potentiation in mice of generalized trembling caused by dl-5-hydroxytryptophane; assay type: in vivo; details: po, mice, potentiation of trembling by dl-5-hydroxytryptophane 200 mg/kg interperitoneal; for ED50: Mus musculus, read-out: Test A ED 50
Procedure: Test A: Potentiation in mice of generalized trembling caused by an interperitoneal injection (200 mg/kg) of dl-5-hydroxytryptophane, following the protocol described by C. GOURET and G. RAYNAUD in J. Pharmacol. (Paris), (1974), 5, 231.

[2] = system: ptosis observed one hour after reserpine; assay: Test B: antagonism of reserpine-induced ptosis in mice; assay type: in vivo; details: Mus musculus, 1 h, po, antagonism of ptosis one hour after reserpine 2 mg/kg intravenous, read-out: Test B ED 50
Procedure: Test B: Antagonism with respect to the ptosis observed one hour after an intravenous injection (2 mg/kg) of reserpine given to mice, following the protocol described by C.

Row | SMILES | ED50 [1] [mg/kg] | ED50 [2] [mg/kg] | Test A ED 50 [1] [mg/kg]
1 | CCCCCCCCC(=O)OCC1CN(c2ccc(OCc3cccc(F)c3)cc2)C(=O)O1 (stereo not drawn) [compound 131] | 12 | 31 | 
2 | CCCCCCCCC(=O)OCC1CN(c2ccc(OCc3ccc(F)cc3)cc2)C(=O)O1 (stereo not drawn) [compound 136] |  | 31 | 
3 | CCCCOc1ccc(N2CC(COC3CCCCC3)OC2=O)cc1 (stereo not drawn) [compound 48] | 50 | 50 | 
4 | O=C(OCC1CN(c2ccc(OCc3cccc([N+](=O)[O-])c3)cc2)C(=O)O1)c1ccccc1 (stereo not drawn) [compound 43] | 15 | 17.5 | 
5 | CC(C)CCOc1ccc(N2CC(CN)OC2=O)cc1 (stereo not drawn) [compound 174] | 3 | 3.5 | 
6 | COCC1CN(c2ccc(OCC3=CCCCC3)cc2)C(=O)O1 (stereo not drawn) [compound 56] |  | 3 | 
7 | CC(C)OCC1CN(c2ccc(OCCC#N)cc2)C(=O)O1 (stereo not drawn) [compound 53] | 5 | 5.8 | 
8 | CC(C)(C)C(=O)OCC1CN(c2ccc(OCC3CCCC3)cc2)C(=O)O1 (stereo not drawn) [compound 17] | 4.8 | 3.6 | 
9 | CC(C)C(=O)OCC1CN(c2ccc(OCCC#N)cc2)C(=O)O1 (stereo not drawn) [compound 5] | 4.7 | 9.5 | 
10 | CC(=O)OCC1CN(c2ccc(OCC#N)cc2)C(=O)O1 (stereo not drawn) [compound 1] | 12.5 | 6.2 | 
11 | CC(C)CCOc1ccc(N2CC(COC(=O)C(C)(C)C)OC2=O)cc1 (stereo not drawn) [compound 125] | 5 | 3.5 | 
12 | CCOCC1CN(c2ccc(OCc3cccc(C#N)c3)cc2)C(=O)O1 (stereo not drawn) [compound 167] | 3.7 | 3 | 
13 | CC(C)C(=O)OCC1CN(c2ccc(OCc3cccc([N+](=O)[O-])c3)cc2)C(=O)O1 (stereo not drawn) [compound 38] | 1.5 | 2 | 
14 | O=C(OCC1CN(c2ccc(OCC3CCCC3)cc2)C(=O)O1)c1ccccc1 (stereo not drawn) [compound 20] | 8.8 | 3.7 | 
15 | CCCCOc1ccc(N2CC(COCCC)OC2=O)cc1 (stereo not drawn) [compound 142] | 18 | 17.5 | 
16 | CC(=O)OCC1CN(c2ccc(OCC3CCCCC3)cc2)C(=O)O1 (stereo not drawn) [compound 21] | 2.1 | 3.5 | 
17 | CC(C)CC(=O)OCC1CN(c2ccc(OCc3cccc([N+](=O)[O-])c3)cc2)C(=O)O1 (stereo not drawn) [compound 134] |  | 3.9 | 
18 | COCC1CN(c2ccc(OCc3ccccc3)cc2)C(=O)O1 (stereo not drawn) [compound 57] | 7.8 | 9 | 
19 | CCCOc1ccc(N2CC(CO)OC2=S)cc1 (stereo not drawn) [compound 88] | 12.5 | 33 | 
20 | COCC1CN(c2cccc(C)c2)C(=O)O1 (stereo not drawn) [compound 45] | 45 | 50 | 
21 | CCC(=O)OCC1CN(c2ccc(OCC3CCCC3)cc2)C(=O)O1 (stereo not drawn) [compound 14] | 2 | 3.1 | 

Row | SMILES | ED50 [1] [mg/kg] | ED50 [2] [mg/kg] | Test A ED 50 [1] [mg/kg]
22 | COCC1CN(c2ccc(OCC3CCC(=O)CC3)cc2)C(=O)O1 (stereo not drawn) [compound 188] | 0.3 | 0.4 | 
23 | CCCCOc1ccc(N2CC(COC(C)C)OC2=O)cc1 (stereo not drawn) [compound 47, para-n-butyloxy phenyl-3 isopropyloxymethyl-5 oxazolidinone-2] | 18 | 36 | 
24 | NCC1CN(c2ccc(OCc3ccccc3)cc2)C(=O)O1 (stereo not drawn) [compound 80] | 20 | 25 | 
25 | CNCC1CN(c2ccc(OCc3cccc(Cl)c3)cc2)C(=O)O1 (stereo not drawn) [compound 83] | 12.5 | 6.2 | 
26 | CCCCC(=O)OCC1CN(c2ccc(OCC3CCCCC3)cc2)C(=O)O1 (stereo not drawn) [compound 104] | 6.2 |  | 
27 | CCCCOc1ccc(N2CC(CNC)OC2=O)cc1 (stereo not drawn) [compound 74] | 4 | 6.2 | 
28 | CCOCC1CN(c2ccc(OCc3ccccc3)cc2)C(=O)O1 (stereo not drawn) [compound 154] | 19 | 17.5 | 
29 | COCC1CN(c2ccc(OCc3cccc(Cl)c3)cc2)C(=O)O1 (stereo not drawn) [compound 59] | 3.4 | 3.1 | 
30 | CCCCOc1ccc(N2CC(CN)OC2=O)cc1 (stereo not drawn) [compound 170] | 12.5 | 16 | 
31 | CCCCCCCCC(=O)OCC1CN(c2ccc(OCc3ccccc3)cc2)C(=O)O1 (stereo not drawn) [compound 28] | 32 | 20 | 
32 | CCCCCCCCC(=O)OCC1CN(c2ccc(OCc3cccc(Cl)c3)cc2)C(=O)O1 (stereo not drawn) [compound 35] | 19 | 6.5 | 
33 | CC(C)CCOc1ccc(N2CC(COC(=O)C(C)C)OC2=O)cc1 (stereo not drawn) [compound 127] | 5 | 4.3 | 
34 | CCCCCOc1ccc(N2CC(COC)OC2=O)cc1 (stereo not drawn) [compound 148] | 2.2 |  | 
35 | CC(=O)OCC1CN(c2ccc(OCc3cccc(C#N)c3)cc2)C(=S)O1 (stereo not drawn) [compound 120] |  | 3 | 
36 | N#CCCOc1ccc(N2CC(CO)OC2=S)cc1 (stereo not drawn) [compound 102] | 6.2 |  | 
37 | CCCOCC1CN(c2ccc(OCc3cccc(C#N)c3)cc2)C(=O)O1 (stereo not drawn) [compound 160] |  | 4.2 | 
38 | CNCC1CN(c2ccc(OCC3CCCCC3)cc2)C(=O)O1 (stereo not drawn) [compound 173] |  | 4.7 | 
39 | NCC1CN(c2ccc(OCC3CCCCC3)cc2)C(=O)O1 (stereo not drawn) [compound 172] |  | 8.6 | 
40 | CC(C)OCC1CN(c2ccc(OCc3cccc(Cl)c3)cc2)C(=O)O1 (stereo not drawn) [compound 60] | 30 |  | 
41 | CCCCCCCCC(=O)OCC1CN(c2ccc(OCCC#N)cc2)C(=O)O1 (stereo not drawn) [compound 9] |  | 25 | 
42 | CCC(=O)OCC1CN(c2ccc(OCCC(C)C)cc2)C(=O)O1 (stereo not drawn) [compound 124] |  | 0.6 | 

Row | SMILES | ED50 [1] [mg/kg] | ED50 [2] [mg/kg] | Test A ED 50 [1] [mg/kg]
43 | OCC1CN(c2ccc(OCC3CCOCC3)cc2)C(=S)O1 (stereo not drawn) [compound 119] |  | 8 | 
44 | CCCCOc1ccc(N2CC(CN(C)C)OC2=O)cc1 (stereo not drawn) [compound 75] | 8 |  | 
45 | OCC1CN(c2ccc(OCC3=CCCCC3)cc2)C(=S)O1 (stereo not drawn) [compound 101] | 18 |  | 
46 | CCC(=O)OCC1CN(c2ccc(OCc3ccc(F)cc3)cc2)C(=O)O1 (stereo not drawn) [compound 135] |  | 4.2 | 
47 | CCCCCCOc1ccc(N2CC(COC)OC2=O)cc1 (stereo not drawn) [compound 149] | 6 |  | 
48 | OCC1CN(c2ccc(OCC3CCCC3)cc2)C(=S)O1 (stereo not drawn) [compound 100] | 6.2 |  | 
49 | CCC(=O)OCC1CN(c2ccc(OCC3CCCCC3)cc2)C(=O)O1 (stereo not drawn) [compound 22] |  | 3 | 
50 | CCCCC(=O)OCC1CN(c2ccc(OCc3cccc(F)c3)cc2)C(=O)O1 (stereo not drawn) [compound 108] | 5.6 |  | 
51 | CC(C)C(=O)OCC1CN(c2ccc(OCc3cccc(F)c3)cc2)C(=O)O1 (stereo not drawn) [compound 107] |  | 12 | 
52 | CC(C)(C)C(=O)OCC1CN(c2ccc(OCCC#N)cc2)C(=O)O1 (stereo not drawn) [compound 7] |  | 7.4 | 
53 | CN(C)CC1CN(c2ccc(OCC3CCCC3)cc2)C(=O)O1 (stereo not drawn) [compound 78] | 6.2 |  | 
54 | CC(C)(C)C(=O)OCC1CN(c2ccc(OCC3CCCCC3)cc2)C(=O)O1 (stereo not drawn) [compound 105] | 6.2 |  | 
55 | CCCCCCCCC(=O)OCC1CN(c2ccc(OCc3cc(Cl)cc([N+](=O)[O-])c3)cc2)C(=O)O1 (stereo not drawn) [compound 138] |  | 6 | 
56 | COCC1CN(c2ccc(OCc3ccc(F)cc3)cc2)C(=O)O1 (stereo not drawn) [compound 64] |  | 4.5 | 
57 | CCC(=O)OCC1CN(c2ccc(OCc3cccc(F)c3)cc2)C(=O)O1 (stereo not drawn) [compound 106] |  |  | 6.2
58 | COCC1CN(c2ccc(OCCC(C)C)cc2)C(=O)O1 (stereo not drawn) [compound 111] | 0.28 |  | 
59 | CCC(=O)OCC1CN(c2ccc(OCc3cc(Cl)cc([N+](=O)[O-])c3)cc2)C(=O)O1 (stereo not drawn) [compound 137] |  | 6 | 
60 | COCC1CN(c2ccc(OCCCC#N)cc2)C(=O)O1 (stereo not drawn) [compound 110] | 0.3 |  | 
61 | CCC(=O)OCC1CN(c2ccc(OCc3cccc(F)c3)cc2)C(=O)O1 (stereo not drawn) [compound 44] | 6.2 |  | 
